Measurements as given in publication PMC9962600, “Structure-Function Studies of Sponge-Derived Compounds on the Cardiac CaV3.1 Channel” (International Journal of Molecular Sciences, 2023).
“And” between values parts separate entries of the source, which are not always exact repeats. Identical values can stand only once.

Legend:
[1] = target: T1, rat CaV3.1 channel (Rattus norvegicus, UniProt O54898); experiment: Two-electrode voltage clamp on Xenopus oocytes expressing CaV3.1; format: cell-based; details: for Shift in the voltage dependency (activation/inactivation) of CaV3.1 / inhibition at 10 µM: 10 μM compound; for inhibition at 10 µM: 10 mM Ba2+, means ± SEM (n ≥ 3), read-out: Inhibition of CaV3.1 currents; for IC50: concentration-response 0.1-100 μM, means ± SEM; for Hill coefficient on CaV3.1: concentration-response fit; for Reversibility of effect on CaV3.1 on wash-out: wash-in and wash-out
T1 sequence (O54898 whole entry): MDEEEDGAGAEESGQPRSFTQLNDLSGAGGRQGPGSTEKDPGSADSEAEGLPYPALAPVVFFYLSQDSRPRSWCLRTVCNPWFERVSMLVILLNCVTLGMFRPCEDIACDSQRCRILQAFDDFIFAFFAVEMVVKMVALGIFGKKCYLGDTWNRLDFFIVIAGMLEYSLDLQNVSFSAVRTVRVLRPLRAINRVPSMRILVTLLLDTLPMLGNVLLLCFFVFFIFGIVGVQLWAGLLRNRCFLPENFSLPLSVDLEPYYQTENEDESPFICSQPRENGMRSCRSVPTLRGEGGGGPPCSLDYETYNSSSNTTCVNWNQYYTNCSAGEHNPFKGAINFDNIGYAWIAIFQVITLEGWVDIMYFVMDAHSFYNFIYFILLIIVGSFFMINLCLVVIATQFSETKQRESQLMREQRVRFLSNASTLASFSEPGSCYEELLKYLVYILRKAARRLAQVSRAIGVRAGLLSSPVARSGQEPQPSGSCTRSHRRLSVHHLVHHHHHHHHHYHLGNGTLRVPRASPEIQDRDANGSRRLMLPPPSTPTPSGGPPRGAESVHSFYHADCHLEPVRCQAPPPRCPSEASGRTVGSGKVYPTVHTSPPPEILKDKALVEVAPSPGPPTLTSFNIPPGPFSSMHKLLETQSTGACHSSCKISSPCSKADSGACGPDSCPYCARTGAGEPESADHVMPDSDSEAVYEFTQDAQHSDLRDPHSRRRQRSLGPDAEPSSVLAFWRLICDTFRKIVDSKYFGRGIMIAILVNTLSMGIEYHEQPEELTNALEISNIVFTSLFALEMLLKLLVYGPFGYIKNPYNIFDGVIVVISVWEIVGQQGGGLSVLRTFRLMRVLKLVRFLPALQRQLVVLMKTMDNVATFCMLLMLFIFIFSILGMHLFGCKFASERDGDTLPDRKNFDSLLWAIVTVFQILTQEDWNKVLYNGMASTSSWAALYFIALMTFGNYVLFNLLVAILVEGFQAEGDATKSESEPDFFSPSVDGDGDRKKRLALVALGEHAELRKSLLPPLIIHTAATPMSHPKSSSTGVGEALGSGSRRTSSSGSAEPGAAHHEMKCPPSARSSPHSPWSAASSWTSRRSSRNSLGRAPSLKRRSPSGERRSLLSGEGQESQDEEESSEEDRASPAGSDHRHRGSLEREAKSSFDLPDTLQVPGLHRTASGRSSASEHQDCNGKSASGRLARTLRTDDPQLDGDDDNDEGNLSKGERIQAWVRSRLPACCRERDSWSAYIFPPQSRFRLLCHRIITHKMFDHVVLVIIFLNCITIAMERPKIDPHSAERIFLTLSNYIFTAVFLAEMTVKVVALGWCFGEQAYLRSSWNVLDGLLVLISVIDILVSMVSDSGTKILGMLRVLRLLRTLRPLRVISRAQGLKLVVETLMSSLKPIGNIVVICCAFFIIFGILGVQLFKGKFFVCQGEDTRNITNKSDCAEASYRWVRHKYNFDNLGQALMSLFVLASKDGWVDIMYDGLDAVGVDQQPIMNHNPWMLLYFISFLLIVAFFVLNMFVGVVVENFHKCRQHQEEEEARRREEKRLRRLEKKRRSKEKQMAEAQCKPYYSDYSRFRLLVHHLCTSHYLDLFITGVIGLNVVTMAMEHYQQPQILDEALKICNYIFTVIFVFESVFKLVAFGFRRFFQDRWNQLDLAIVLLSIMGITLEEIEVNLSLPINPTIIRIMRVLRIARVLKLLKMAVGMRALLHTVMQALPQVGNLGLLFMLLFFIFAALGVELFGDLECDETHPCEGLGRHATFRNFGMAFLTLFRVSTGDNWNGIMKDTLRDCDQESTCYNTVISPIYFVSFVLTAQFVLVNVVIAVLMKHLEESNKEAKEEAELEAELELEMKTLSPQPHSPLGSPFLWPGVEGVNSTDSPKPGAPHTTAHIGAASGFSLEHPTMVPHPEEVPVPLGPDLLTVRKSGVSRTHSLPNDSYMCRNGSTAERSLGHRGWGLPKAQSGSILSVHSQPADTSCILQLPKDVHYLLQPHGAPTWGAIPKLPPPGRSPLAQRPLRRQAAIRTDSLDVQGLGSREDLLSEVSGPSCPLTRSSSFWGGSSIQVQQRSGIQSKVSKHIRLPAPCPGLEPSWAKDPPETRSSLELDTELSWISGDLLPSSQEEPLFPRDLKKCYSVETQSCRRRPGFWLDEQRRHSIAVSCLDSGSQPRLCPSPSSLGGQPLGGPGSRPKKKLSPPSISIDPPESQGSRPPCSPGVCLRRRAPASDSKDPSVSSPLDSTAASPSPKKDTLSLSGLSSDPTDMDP
Description: In previous work, a library of 119 simplified analogs was synthesized with the aim of targeting KV10.1 [18, 23, 24, 25]. Due to the interesting activity of purpurealidin I (1), we decided to repurpose this existing library to investigate the structure–activity relationship with respect to the CaV3.1 channels. All compounds were first dissolved in DMSO and then diluted in a 10 mM Ba^2+ solution. Compounds were tested at a final concentration of 10 μM.
(§1) Rat CaV3.1, human CaV3.2, rat CaV3.3, human NaV1.5, rat KV1.4, rat KV4.2, and human KV11.1 were expressed in X. laevis oocytes by linearizing the plasmids and subsequent in vitro transcription using a commercial T7 mMESSAGE mMACHINE transcription kit (Ambion, Carlsbad, CA, USA). Defolliculated Xenopus oocytes were injected with 50 nL of cRNA at a concentration of 1 ng/nL by using a microinjector (Drummond Scientific Company, Broomall, PA, USA). The oocytes were incubated in a solution containing (in mM): NaCl, 96; KCl, 2; CaCl2, 1.8; MgCl2, 2; and HEPES, 5 (pH 7.5). This solution was supplemented with 50 mg/L gentamicin sulfate and […] theophylline.
(§2) Two-electrode voltage clamp recordings were performed at room temperature (18–22 °C) by using a GeneClamp 500 amplifier (Molecular Devices, San Jose, CA, USA) controlled by a pClamp data acquisition system (Axon Instruments, Union City, CA, USA). Whole-cell currents from oocytes were recorded 5–10 days after mRNA injection. The bath solution composition was the following (in mM): BaCl2, 10; NaOH, 90; KOH, 1; EDTA, 0.1; and HEPES, 5 (pH 7.5). Voltage and current electrodes were filled with 3 M KCl. Resistances of both electrodes were kept between 0.8 and 1.5 MΩ. The elicited CaV3.1, CaV3.2, and CaV3.3 currents were filtered at 2 kHz and sampled at 4 kHz using a four-pole low-pass Bessel filter. Leak subtraction was performed by using a -P/4 protocol. Oocytes were placed in a measuring chamber filled with 200 μL ND96. The compounds were added directly to the measuring chamber under continuous application of the described voltage protocol. The percentage channel modulation was calculated when steady-state conditions were reached.
(§3) For the electrophysiological analysis of peptides, a number of protocols were applied from a holding potential of −90 mV. Currents for CaV3.1 and CaV3.2, which were carried by Ba^2+, were evoked by 300 ms depolarizing pulses to −25 mV or Vmax (the voltage corresponding to maximal Ba^2+ current in control conditions). Currents for CaV3.3, which were carried by Ba^2+, were evoked by 1 s depolarizing pulses to −25 mV or Vmax. The current–voltage relationships were determined by 600 ms step depolarizations between −90 and +60 mV, using 10 mV increments. The values of IPBa were normalized to the maximal Ba^2+ current amplitude and plotted as a function of voltage. To investigate the effect of the peptide toxins on the activation and steady-state inactivation, a standard 2-step protocol was used. In this protocol, 600 ms conditioning 10 mV step prepulses, ranging from −90 to +60 mV, were followed by a 400 ms test pulse to −25 mV. Data were normalized to the maximal Ba^2+ current amplitude, plotted against prepulse potential, and fitted by using the Boltzmann function: ICa/Imax = {(1 − C)/(1 + exp[(V − Vh)/k)]} + C, where Imax is the maximal IBa, Vh is the voltage corresponding to half-maximal inactivation, V is the test voltage, k is the slope factor, and C is a constant representing a non-inactivating persistent fraction (close to 0 in control). The concentration–response relationship was determined by fitting the data with the Hill equation: y = 100/{1 + [IC50/(toxin)]^h}, where y is the amplitude of the toxin-induced effect, IC50 is the toxin concentration at half-maximal efficacy, toxin is the toxin concentration, and h is the Hill coefficient.

[2] = target: human CaV3.2 (Homo sapiens, UniProt O95180); experiment: Two-electrode voltage clamp on Xenopus oocytes expressing CaV3.2; format: cell-based; details: for Shift in the voltage dependency (activation/inactivation) of CaV3.2: 10 μM compound; for Hill coefficient on CaV3.2: concentration-response fit; for IC50: concentration-response, means ± SEM; for Reversibility of effect on CaV3.2 on wash-out: wash-in and wash-out
Description: as §1, §2, §3

[3] = target: rat CaV3.3 (Rattus norvegicus, UniProt Q9Z0Y8); experiment: Two-electrode voltage clamp on Xenopus oocytes expressing CaV3.3; format: cell-based; details: for Shift in the voltage dependency (activation/inactivation) of CaV3.3: 10 μM compound; for Hill coefficient on CaV3.3: concentration-response fit; for IC50: concentration-response, means ± SEM; for Reversibility of effect on CaV3.3 on wash-out: wash-in and wash-out
Description: as §1, §2, §3

[4] = target: KV11.1 (hERG) (Homo sapiens, UniProt Q12809); experiment: Selectivity screening, KV11.1 (hERG) in Xenopus oocytes; format: cell-based; details: human, Xenopus laevis oocytes expressing human KV11.1 (hERG), pH 7.5; 10 μM; means ± SEM (n ≥ 3); read-out: Percentage of inhibition of KV11.1
KV11.1 (hERG), sequence (Q12809 whole entry): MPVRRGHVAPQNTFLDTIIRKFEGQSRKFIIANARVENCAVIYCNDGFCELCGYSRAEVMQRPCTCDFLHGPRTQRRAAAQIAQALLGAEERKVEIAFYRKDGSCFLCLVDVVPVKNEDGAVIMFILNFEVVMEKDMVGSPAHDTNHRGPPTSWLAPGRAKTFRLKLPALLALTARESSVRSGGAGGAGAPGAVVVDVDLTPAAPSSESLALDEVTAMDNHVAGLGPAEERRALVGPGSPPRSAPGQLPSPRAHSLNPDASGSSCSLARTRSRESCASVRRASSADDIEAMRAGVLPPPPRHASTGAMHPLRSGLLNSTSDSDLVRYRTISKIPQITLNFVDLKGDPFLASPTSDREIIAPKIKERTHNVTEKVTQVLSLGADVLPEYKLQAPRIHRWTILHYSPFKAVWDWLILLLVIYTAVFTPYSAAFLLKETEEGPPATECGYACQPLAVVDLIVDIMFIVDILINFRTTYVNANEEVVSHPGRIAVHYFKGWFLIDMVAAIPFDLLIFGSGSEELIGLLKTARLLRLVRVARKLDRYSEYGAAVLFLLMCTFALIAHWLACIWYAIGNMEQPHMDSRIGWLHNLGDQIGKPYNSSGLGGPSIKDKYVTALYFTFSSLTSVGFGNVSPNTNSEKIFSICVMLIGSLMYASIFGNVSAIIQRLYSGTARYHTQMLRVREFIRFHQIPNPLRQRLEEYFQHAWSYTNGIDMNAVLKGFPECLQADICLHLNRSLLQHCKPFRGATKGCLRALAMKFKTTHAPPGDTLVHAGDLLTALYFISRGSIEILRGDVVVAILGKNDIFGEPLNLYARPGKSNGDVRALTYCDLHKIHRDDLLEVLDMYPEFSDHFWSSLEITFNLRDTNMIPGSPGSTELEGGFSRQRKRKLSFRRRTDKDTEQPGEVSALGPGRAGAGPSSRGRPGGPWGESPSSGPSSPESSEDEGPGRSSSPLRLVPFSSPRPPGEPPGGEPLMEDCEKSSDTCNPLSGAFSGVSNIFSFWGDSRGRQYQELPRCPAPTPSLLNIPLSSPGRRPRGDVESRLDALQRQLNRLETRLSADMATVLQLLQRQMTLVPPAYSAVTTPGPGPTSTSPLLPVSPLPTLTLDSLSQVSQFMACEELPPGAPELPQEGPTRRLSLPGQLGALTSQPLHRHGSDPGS
Description: (§4) As these purpurealidin analogs represent a new class of potent CaV3.1 inhibitors, they could potentially be used as pharmacological tools to investigate the role of CaV3 channels in various disease models. Therefore, compounds 74, 76, 79, and 99 were further evaluated at a concentration of 10 μM for their selectivity against cardiac voltage-gated potassium and sodium channels. […] Nevertheless, the affinity for the KV11.1 channel is an important issue for all four compounds (Table 2).
as §1
(§5) The selectivity screening was conducted with the following protocols: the elicited KV1.4, KV4.2, and KV11.1 currents were filtered at 0.5 kHz and sampled at 2 kHz; NaV1.5 currents were filtered at 2 kHz and sampled at 20 kHz using a four-pole low-pass Bessel filter. Leak subtraction was performed using a -P/4 protocol. The oocytes were measured in a bath solution composition of ND96 (in mM): NaCl, 96; KCl, 2; CaCl2, 1.8; MgCl2, 2; and HEPES, 5 (pH 7.5). For the electrophysiological analysis of the compounds, a number of protocols were applied from a holding potential of −90 mV. Currents for KV1.4 and KV4.2 were evoked by 0.5 s depolarizing pulses to 0 mV, followed by 0.5 s repolarizing pulses to −50 mV. Currents for KV11.1 were evoked by 2.5 s depolarizing prepulses to +40 mV, followed by hyperpolarizing pulses to −120 mV for 2.5 s. Currents for NaV1.5 were evoked by 100 ms depolarizing pulses to 0 mV.

[5] = target: human KV11.1 (Homo sapiens, UniProt Q12809); experiment: as above; format: cell-based; details: comparison of own CaV3.1 and KV11.1 data
human KV11.1, sequence (Q12809 whole entry): as above
Description: as §4, §1, §5

[6] = target: T1, rat CaV3.1 channel; experiment: Two-electrode voltage clamp on Xenopus oocytes expressing CaV3.1; format: cell-based
[7] = test system: hERG channels; details: reference not given; cited from earlier work

| Compound | Shift in the voltage dependency (activation/inactivation) of CaV3.1 [1] | inhibition at 10 µM [1] | IC50 [1] | Hill coefficient on CaV3.1 [1] | Reversibility of effect on CaV3.1 on wash-out [1] | Shift in the voltage dependency (activation/inactivation) of CaV3.2 [2] | Hill coefficient on CaV3.2 [2] | IC50 [2] | Reversibility of effect on CaV3.2 on wash-out [2] | Shift in the voltage dependency (activation/inactivation) of CaV3.3 [3] | Hill coefficient on CaV3.3 [3] | IC50 [3] | Reversibility of effect on CaV3.3 on wash-out [3] | inhibition at 10 µM [4] | also measured |
| --- | --- | --- | --- | --- | --- | --- | --- | --- | --- | --- | --- | --- | --- | --- | --- |
| CN(C)CCCOc1ccc(Nc2ccc(C(F)(F)F)cc2[N+](=O)[O-])cc1 [Compound 74] | No significant shift | 43.4 ± 2.4% | 2.6 ± 0.6 µM | 0.8 ± 0.1 | reversible | No significant shift | 0.8 ± 0.0 | 3 ± 0.2 µM | reversible | No significant shift | 0.5 ± 0.1 | 13.9 ± 5.1 µM | reversible | 45.8 ± 2.9% | – |
| CN(C)CC(O)COc1ccc(Nc2ccc(C(F)(F)F)cc2[N+](=O)[O-])cc1 (stereo not shown) [Compound 76] | No significant shift | 43 ± 4.5% | 3.7 ± 0.6 µM | 0.9 ± 0.1 | reversible | No significant shift | 0.8 ± 0.1 | 8.4 ± 3.6 µM | reversible | No significant shift | 0.7 ± 0.1 | 18.2 ± 3.1 µM | reversible | 64.2 ± 3.2% | – |
| O=C(NCc1cccnc1)C1=NOC2(C=C(Cl)C(=O)C(Cl)=C2)C1 [Compound 72] | – | 3.1 ± 1.1% | – | – | – | – | – | – | – | – | – | – | – | – | – |
| CN(C)CC(O)COc1ccc(Nc2ccc(C(F)(F)F)cc2)cc1 (stereo not shown) [Compound 79] | No significant shift | 60.4 ± 5.7% | 5.9 ± 1.9 µM | 0.8 ± 0.1 | reversible | No significant shift | 1.0 ± 0.0 | 7 ± 0.1 µM | reversible | No significant shift | 0.7 ± 0.1 | 2.7 ± 0.3 µM | reversible | 67.6 ± 3.9% | – |
| CNCCCOc1c(Br)cc(CCNC(=O)/C(Cc2cc(Br)c(OC)c(Br)c2)=N/O)cc1Br [Compound 1, purpurealidin I] | – | 70.5 ± 0.6% | – | – | – | – | – | – | – | – | – | – | – | – | – |
| CN(C)CC(O)COc1ccc(Oc2ccc(C(F)(F)F)cc2[N+](=O)[O-])cc1 (stereo not shown) [Compound 99] | – | 90.7 ± 5.4% | ~3 µM and 4.1 µM | 1.6 ± 0.1 | – | – | 1.4 ± 0.3 | 2.3 ± 0.5 µM | – | – | – | – | – | 69.1 ± 1.9% | Potency across CaV3.1 and hERG channels [5]: equipotent; Shift in the voltage dependency (activation/inactivation) of CaV3.1 ([6]; 5 μM compound): no significant shift; inhibition at 5 µM ([6]; 5 μM compound, read-out: Inhibition of CaV3.1 currents): 57 ± 5.8%; Reversibility of effect on CaV3.1 on wash-out ([6]; 5 μM compound, wash-out with compound-free bath solution): not completely reversible; Midpoint of activation V1/2 ([6]; in the presence of 5 μM compound, control −39.9 ± 0.1 mV): −37.4 ± 0.1 mV; Inactivation curve V1/2 ([6]; in the presence of 5 μM compound, control −56.0 ± 0.1 mV): −53.0 ± 0.2 mV |
| CC(C)(C)NC(=O)CN1CCC(CNC(=O)c2cc(F)cc(Cl)c2)CC1 [Compound Z944] | – | – | – | – | – | – | – | – | – | – | – | – | – | – | IC50 [7]: 7.8 µM; Potency against CaV3.1 compared to hERG channels [7]: 150 fold |
